# In ChEMBL document CHEMBL1667745, “Synthesis and antibacterial evaluation of novel clarithromycin derivatives with C-4″ elongated arylalkyl groups against macrolide-resistant strains” (2011):
# Experiments:
# Assay type in all cases: functional
# Staphylococcus aureus [1] = experiment: Antimicrobial activity against erythromycin-susceptible Staphylococcus aureus ATCC 25923 by broth microdilution method
# Streptococcus pneumoniae [2] = experiment: Antimicrobial activity against erythromycin-susceptible Streptococcus pneumoniae ATCC 49619 by broth microdilution method
# Streptococcus pyogenes [3] = experiment: Antimicrobial activity against erythromycin-resistant Streptococcus pyogenes R2 by broth microdilution method
# Staphylococcus aureus [4] = experiment: Antimicrobial activity against penicillin-susceptible Staphylococcus aureus P1 by broth microdilution method
# Streptococcus pneumoniae [5] = experiment: Antimicrobial activity against erythromycin-resistant Streptococcus pneumoniae AB11 expressing the erm and mef gene by broth microdilution method
# Streptococcus pneumoniae [6] = experiment: Antimicrobial activity against erythromycin-resistant Streptococcus pneumoniae A22072 expressing the mef gene by broth microdilution method
# Streptococcus pyogenes [7] = experiment: Antimicrobial activity against erythromycin-susceptible Streptococcus pyogenes S2 by broth microdilution method
# Streptococcus pneumoniae [8] = experiment: Antimicrobial activity against erythromycin-resistant Streptococcus pneumoniae B1 expressing the erm gene by broth microdilution method
SMILES,MIC (Staphylococcus aureus [1]),MIC (Streptococcus pneumoniae [2]),MIC (Streptococcus pyogenes [3]),MIC (Staphylococcus aureus [4]),MIC (Streptococcus pneumoniae [5]),MIC (Streptococcus pneumoniae [6]),MIC (Streptococcus pyogenes [7]),MIC (Streptococcus pneumoniae [8])
CC[C@H]1OC(=O)[C@H](C)[C@@H](O[C@H]2C[C@@](C)(OC)[C@@H](OC(=O)NCCCC(=O)NCCc3ccc(O)cc3)[C@H](C)O2)[C@H](C)[C@@H](O[C@@H]2O[C@H](C)C[C@H](N(C)C)[C@H]2O)[C@](C)(OC)C[C@@H](C)C(=O)[C@H](C)[C@@H](O)[C@]1(C)O,0.5 µg/mL,0.03 µg/mL,8 µg/mL,9 µg/mL,1 µg/mL,0.5 µg/mL,0.5 µg/mL,0.25 µg/mL
CC[C@H]1OC(=O)[C@H](C)[C@@H](O[C@H]2C[C@@](C)(OC)[C@@H](OC(=O)NCCCC(=O)NCCc3ccccc3Cl)[C@H](C)O2)[C@H](C)[C@@H](O[C@@H]2O[C@H](C)C[C@H](N(C)C)[C@H]2O)[C@](C)(OC)C[C@@H](C)C(=O)[C@H](C)[C@@H](O)[C@]1(C)O,0.25 µg/mL,0.03 µg/mL,1 µg/mL,32 µg/mL,32 µg/mL,1 µg/mL,0.03 µg/mL,32 µg/mL
CCCNC(=O)O[C@H]1[C@H](C)O[C@@H](O[C@H]2[C@H](C)[C@@H](O[C@@H]3O[C@H](C)C[C@H](N(C)C)[C@H]3O)[C@](C)(OC)C[C@@H](C)C(=O)[C@H](C)[C@@H](O)[C@](C)(O)[C@@H](CC)OC(=O)[C@@H]2C)C[C@@]1(C)OC,0.25 µg/mL,0.25 µg/mL,1 µg/mL,16 µg/mL,32 µg/mL,2 µg/mL,0.5 µg/mL,64 µg/mL
C=CCNC(=O)O[C@H]1[C@H](C)O[C@@H](O[C@H]2[C@H](C)[C@@H](O[C@@H]3O[C@H](C)C[C@H](N(C)C)[C@H]3O)[C@](C)(OC)C[C@@H](C)C(=O)[C@H](C)[C@@H](O)[C@](C)(O)[C@@H](CC)OC(=O)[C@@H]2C)C[C@@]1(C)OC,0.25 µg/mL,0.25 µg/mL,–,32 µg/mL,–,–,0.03 µg/mL,–
CCCCNC(=O)O[C@H]1[C@H](C)O[C@@H](O[C@H]2[C@H](C)[C@@H](O[C@@H]3O[C@H](C)C[C@H](N(C)C)[C@H]3O)[C@](C)(OC)C[C@@H](C)C(=O)[C@H](C)[C@@H](O)[C@](C)(O)[C@@H](CC)OC(=O)[C@@H]2C)C[C@@]1(C)OC,0.25 µg/mL,0.25 µg/mL,4 µg/mL,8 µg/mL,64 µg/mL,1 µg/mL,0.25 µg/mL,64 µg/mL
CCCCCNC(=O)O[C@H]1[C@H](C)O[C@@H](O[C@H]2[C@H](C)[C@@H](O[C@@H]3O[C@H](C)C[C@H](N(C)C)[C@H]3O)[C@](C)(OC)C[C@@H](C)C(=O)[C@H](C)[C@@H](O)[C@](C)(O)[C@@H](CC)OC(=O)[C@@H]2C)C[C@@]1(C)OC,0.25 µg/mL,0.06 µg/mL,0.12 µg/mL,16 µg/mL,128 µg/mL,0.25 µg/mL,0.03 µg/mL,32 µg/mL
CC[C@H]1OC(=O)[C@H](C)[C@@H](O[C@H]2C[C@@](C)(OC)[C@@H](OC(=O)NCCCC(=O)NC3CCCCC3)[C@H](C)O2)[C@H](C)[C@@H](O[C@@H]2O[C@H](C)C[C@H](N(C)C)[C@H]2O)[C@](C)(OC)C[C@@H](C)C(=O)[C@H](C)[C@@H](O)[C@]1(C)O,0.5 µg/mL,0.03 µg/mL,8 µg/mL,8 µg/mL,64 µg/mL,2 µg/mL,0.25 µg/mL,32 µg/mL
CC[C@H]1OC(=O)[C@H](C)[C@@H](O[C@H]2C[C@@](C)(OC)[C@@H](OC(=O)NCCCC(=O)NC(C)C)[C@H](C)O2)[C@H](C)[C@@H](O[C@@H]2O[C@H](C)C[C@H](N(C)C)[C@H]2O)[C@](C)(OC)C[C@@H](C)C(=O)[C@H](C)[C@@H](O)[C@]1(C)O,0.25 µg/mL,0.03 µg/mL,16 µg/mL,8 µg/mL,128 µg/mL,8 µg/mL,0.5 µg/mL,128 µg/mL
C=CCNC(=O)CCCNC(=O)O[C@H]1[C@H](C)O[C@@H](O[C@H]2[C@H](C)[C@@H](O[C@@H]3O[C@H](C)C[C@H](N(C)C)[C@H]3O)[C@](C)(OC)C[C@@H](C)C(=O)[C@H](C)[C@@H](O)[C@](C)(O)[C@@H](CC)OC(=O)[C@@H]2C)C[C@@]1(C)OC,0.25 µg/mL,0.03 µg/mL,–,8 µg/mL,–,–,0.03 µg/mL,–
C=CCNC(=O)CCCCCNC(=O)O[C@H]1[C@H](C)O[C@@H](O[C@H]2[C@H](C)[C@@H](O[C@@H]3O[C@H](C)C[C@H](N(C)C)[C@H]3O)[C@](C)(OC)C[C@@H](C)C(=O)[C@H](C)[C@@H](O)[C@](C)(O)[C@@H](CC)OC(=O)[C@@H]2C)C[C@@]1(C)OC,0.25 µg/mL,0.03 µg/mL,–,16 µg/mL,–,–,0.5 µg/mL,–
